Reference: US6989389B2, “Aryl ether substituted imidazoquinolines” (3M Innovative Properties Co., priority 2000, dated 2006)
Counter-ions that a name gives are not always drawn. Like-named read-outs stand apart in the source and are kept apart here.

Key:
[1] = test system: Peripheral blood mononuclear cells (PBMC); assay: Cytokine Induction in Human Cells (in vitro human blood cell system, IFN and TNF secreted into culture media); format: cell-based; set-up: key to Lowest Effective Concentration (μM) Tumor Necrosis Factor / Lowest Effective Concentration (μM) Interferon: *: no induction was seen at any of the tested concentrations; details: 18 to 24 hours, tested 30-0.014 μM
From the text: An in vitro human blood cell system is used to assess cytokine induction. Activity is based on the measurement of interferon and tumor necrosis factor (α) (IFN and TNF, respectively) secreted into culture media as described by Testerman et. al. In “Cytokine Induction by the Immunomodulators Imiquimod and S-27609”, Journal of Leukocyte Biology, 58, 365-372 (September, 1995).
Whole blood from healthy human donors is collected by venipuncture into EDTA vacutainer tubes. Peripheral blood mononuclear cells (PBMC) are separated from whole blood by density gradient centrifugation using Histopaque®-1077. Blood is diluted 1:1 with Dulbecco's Phosphate Buffered Saline (DPBS) or Hank's Balanced Salts Solution (HBSS). The PBMC layer is collected and washed twice with DPBS or HBSS and resuspended at 4×10^6 cells/mL in RPMI complete. The PBMC suspension is added to 48 well flat bottom sterile tissue culture plates (Costar, Cambridge, Mass. or Becton Dickinson Labware, Lincoln Park, N.J.) containing an equal volume of RPMI complete media containing test compound.
The compounds are solubilized in dimethyl sulfoxide (DMSO). The DMSO concentration should not exceed a final concentration of 1% for addition to the culture wells. The compounds are generally tested at concentrations ranging from 30-0.014 μM.
The solution of test compound is added at 60 μM to the first well containing RPMI complete and serial 3 fold dilutions are made in the wells. The PBMC suspension is then added to the wells in an equal volume, bringing the test compound concentrations to the desired range (30-0.014 μM). The final concentration of PBMC suspension is 2×10^6 cells/mL. The plates are covered with sterile plastic lids, mixed gently and then incubated for 18 to 24 hours at 37° C. in a 5% carbon dioxide atmosphere.
Following incubation the plates are centrifuged for 10 minutes at 1000 rpm (˜200×g) at 4° C. The cell-free culture supernatant is removed with a sterile polypropylene pipet and transferred to sterile polypropylene tubes. Samples are maintained at −30 to −70° C. until analysis. The samples are analyzed for interferon (α) by ELISA and for tumor necrosis factor (α) by ELISA or IGEN Assay.
Interferon (α) concentration is determined by ELISA using a Human Multi-Species kit from PBL Biomedical Laboratories, New Brunswick, N.J. Results are expressed in pg/mL.
Tumor necrosis factor (α) (TNF) concentration is determined using ELISA kits available from Biosource International, Camarillo, Calif. Alternately, the TNF concentration can be determined by Origen® M-Series Immunoassay and read on an IGEN M-8 analyzer from IGEN International, Gaithersburg, Md. The immunoassay uses a human TNF capture and detection antibody pair from Biosource International, Camarillo, Calif. Results are expressed in pg/mL.
The table below lists the lowest concentration found to induce interferon and the lowest concentration found to induce tumor necrosis factor for each compound.

[2] = Homo sapiens, PBMC, lowest concentration found to induce interferon (α), ELISA, read-out: Lowest Effective Concentration (μM) Interferon
[3] = Homo sapiens, PBMC, lowest concentration found to induce tumor necrosis factor (α), ELISA or IGEN assay, read-out: Lowest Effective Concentration (μM) Tumor Necrosis Factor
[4] = lowest concentration found to induce tumor necrosis factor (α), ELISA or IGEN assay
[5] = lowest concentration found to induce interferon (α), ELISA

Row | melting point [°C] | SMILES | minimal effective concentration [1, 2] [µM] | minimal effective concentration [1, 3] [µM] | Lowest Effective Concentration (μM) Tumor Necrosis Factor [1, 4] | other results
1 | 239 to 241 | CC(C)c1ccccc1C#CCOCCn1cnc2c(N)nc3ccccc3c21 (as salt: hydrochloride) [Example 7, 1-(2-{[3-(2-Isopropylphenyl)-2-propynyl]oxy}ethyl)-1H-imidazo[4,5-c]quinolin-4-amine Hydrochloride] |  |  |  | 
2 | 128 to 134 | CCOCc1nc2c(N)nc3ccccc3c2n1CCOCCCc1ccccc1 (as salt: hydrochloride) [Example 16, 2-(Ethoxymethyl)-1-[2-(3-phenylpropoxy)ethyl]-1H-imidazo[4,5-c]quinolin-4-amine Hydrochloride] |  |  |  | 
3 | 179 to 181 | Nc1nc2ccccc2c2c1ncn2CCOCCCc1ccc(-n2cccc2)cc1 (as salt: trifluoroacetate) [Example 11, 1-(2-{3-[4-(1H-1-Pyrrolyl)phenyl]propoxy}ethyl)-1H-imidazo[4,5-c]quinolin-4-amine trifluoroacetate] |  |  |  | 
4 | 138 to 140 | Nc1nc2ccccc2c2c1ncn2CCOCCCc1cccc(C(=O)O)c1 (as salt: trifluoroacetate) [Example 12, 3-{3-[2-(4-Amino-1H-imidazo[4,5-c]quinolin-1-yl)ethoxy]propyl}benzoic acid bis(trifluoroacetate)] |  |  |  | 
5 | 186 to 188 | Nc1nc2ccccc2c2c1ncn2CCOCCCc1ccccc1C(=O)O (as salt: trifluoroacetate) [Example 13, 2-{3-[2-(4-Amino-1H-imidazo[4,5-c]quinolin-1-yl)ethoxy]propyl}benzoic acid trifluoroacetate] |  |  |  | 
6 | 235 to 237 | Nc1nc2ccccc2c2c1ncn2CCOCCCc1ccc(C(=O)O)cc1 (as salt: trifluoroacetate) [Example 14, 4-{3-[2-(4-Amino-1H-imidazo[4,5-c]quinolin-1-yl)ethoxy]propyl}benzoic acid trifluoroacetate] |  |  |  | 
7 | 137 to 140 | CN(C)c1ccc(CCCOCCn2cnc3c(N)nc4ccccc4c32)cc1 (as salt: trifluoroacetate) [Example 114, 1-(2-{3-[4-(Dimethylamino)phenyl]propoxy}ethyl)-1H-imidazo[4,5-c]quinolin-4-amine] |  |  |  | 
8 | 225 to 227 | C#CCOCCn1cnc2c(N)nc3ccccc3c21 [Example 1, 1-[2-(2-Propynyloxy)ethyl]-1H-imidazo[4,5-c]quinolin-4-amine] | 0.12 | 1.11 |  | 
9 | 180 to 183 | N#Cc1ccccc1C#CCOCCn1cnc2c(N)nc3ccccc3c21 [Example 2, 2-{3-[2-(4-Amino-1H-imidazo[4,5-c]quinolin-1-yl)ethoxy]-1-propynyl}benzonitrile] | 1.11 |  | * | 
10 | 196 to 197 | Nc1nc2ccccc2c2c1ncn2CCOCC#Cc1ccccc1 [Example 3, 1-{2-[(3-Phenyl-2-propynyl)oxy]ethyl}-1H-imidazo[4,5-c]quinolin-4-amine] | 0.12 | 3.33 |  | 
11 | 231 to 236 | Cl.Nc1nc2ccccc2c2c1ncn2CCOCC#Cc1ccccc1 [Example 4, 1-{2-[(3-Phenyl-2-propynyl)oxy]ethyl}-1H-imidazo[4,5-c]quinolin-4-amine Hydrochloride] |  |  | * | minimal effective concentration ([1]; lowest concentration found to induce interferon (α), ELISA, read-out: Lowest Effective Concentration (μM) Interferon): 0.12 µM
12 |  | CC(Cn1cnc2c(N)nc3ccccc3c21)Oc1ccccc1C#N (stereo not shown) [Example 97] | 1.11 |  | * | 
13 |  | CC(Cn1cnc2c(N)nc3ccccc3c21)Oc1ccc(-n2ccnc2)cc1 (stereo not shown) [Example 98] | 0.37 |  | * | 
14 |  | COc1ccc(OC(C)Cn2cnc3c(N)nc4ccccc4c32)cc1 (stereo not shown) [Example 99] | 0.37 |  | * | 
15 |  | CC(Cn1cnc2c(N)nc3ccccc3c21)Oc1ccc(C(C)(C)CC(C)(C)C)cc1 (stereo not shown) [Example 100] |  |  | * | Lowest Effective Concentration (μM) Interferon [1, 5]: *
16 |  | CCC(COc1ccc(-n2ccnc2)cc1)n1cnc2c(N)nc3ccccc3c21 (stereo not shown) [Example 101] | 0.04 | 10 |  | 

Row | melting point [°C] | SMILES | minimal effective concentration [1, 2] [µM] | minimal effective concentration [1, 3] [µM] | Lowest Effective Concentration (μM) Tumor Necrosis Factor [1, 4] | other results
17 |  | CCC(COc1ccccc1C#N)n1cnc2c(N)nc3ccccc3c21 (stereo not shown) [Example 102] | 0.37 |  | * | 
18 |  | CCC(COc1ccc(C(C)(C)CC(C)(C)C)cc1)n1cnc2c(N)nc3ccccc3c21 (stereo not shown) [Example 103] |  | 10 |  | Lowest Effective Concentration (μM) Interferon [1, 5]: *
19 |  | CCC(COc1ccc(NC(C)=O)cc1)n1cnc2c(N)nc3ccccc3c21 (stereo not shown) [Example 104] | 0.12 | 10 |  | 
20 |  | Nc1nc2ccccc2c2c1ncn2CCOc1ccccc1 [Example 105, 1-(2-Phenoxyethyl)-1H-imidazo[4,5-c]quinolin-4-amine] | 0.37 | 1.11 |  | 
21 |  | CCC(COc1ccccc1)n1cnc2c(N)nc3ccccc3c21 (stereo not shown) [Example 106, 1-[(1-Phenoxymethyl)propyl]-1H-imidazo[4,5-c]quinolin-4-amine] | 0.37 |  | * | 
22 |  | CC[C@H](COCCCc1ccccc1)n1cnc2c(N)nc3ccccc3c21 [Example 109, 1-{(1R)-1-[(3-Phenylpropoxy)methyl]propyl}-1H-imidazo[4,5-c]quinolin-4-amine] | 0.01 | 0.37 |  | 
23 |  | C[C@@H](COCc1ccc(C#N)cc1)Cn1cnc2c(N)nc3ccccc3c21 [Example 110] | 3.33 |  | * | 
24 |  | C[C@@H](COCc1ccc(C(C)(C)C)cc1)Cn1cnc2c(N)nc3ccccc3c21 [Example 111] | 3.33 |  | * | 
25 |  | C[C@@H](COCc1cccc(Cl)c1)Cn1cnc2c(N)nc3ccccc3c21 [Example 112] |  |  | * | Lowest Effective Concentration (μM) Interferon [1, 5]: *
26 |  | CN(C)c1ccc(CCCOCCn2cnc3c(N)nc4ccccc4c32)cc1 [Example 114, 1-(2-{3-[4-(Dimethylamino)phenyl]propoxy}ethyl)-1H-imidazo[4,5-c]quinolin-4-amine] | 0.12 | 0.37 |  | 
27 |  | Cc1nc2c(N)nc3ccccc3c2n1CCOCC#Cc1ccccc1 [Example 118, 2-Methyl-1-{2-[(3-phenylprop-2-ynyl)oxy]ethyl}-1H-imidazo[4,5-c]quinolin-4-amine] | 0.01 | 0.04 |  | 
28 | 191.7 to 192.6 | Nc1nc2ccccc2c2c1nc(CC1CC1)n2CCOc1ccccc1 [Example 137, 2-(Cyclopropylmethyl)-1-(2-phenoxyethyl)-1H-imidazo[4,5-c]quinolin-4-amine] |  |  |  | 
29 |  | CC[C@H](COCc1ccc(C#N)cc1)n1cnc2c(N)nc3ccccc3c21 [Example 142, 4-({[(2R)-2-(4-Amino-1H-imidazo[4,5-c]quinolin-1-yl)butyl]oxy}methyl)benzonitrile] | 0.04 | 0.04 |  | 
30 |  | CC[C@@H](COCc1ccc(C#N)cc1)n1cnc2c(N)nc3ccccc3c21 [Example 143, 4-({[(2S)-2-(4-Amino-1H-imidazo[4,5-c]quinolin-1-yl)butyl]oxy}methyl)benzonitrile] | 1.11 | 3.33 |  | 
31 |  | C#CCOCCn1c(CCOC)nc2c(N)nc3ccccc3c21 [Example 144, 2-(2-Methoxyethyl)-1-[2-(prop-2-ynyloxy)ethyl]-1H-imidazo[4,5-c]quinolin-4-amine] | 0.01 | 0.04 |  | 
